Data published in US20230302036A1, “COMPOSITIONS FOR TREATMENT OF SPINAL MUSCULAR ATROPHY” (priority 2020, published 2023).
“Also recorded” adds a separate entry of the source. Oligonucleotides are written 5' to 3', each unit as a sugar letter and its base; * is a phosphorothioate linkage, no mark a phosphodiester; rarer units and linkages stand in square brackets, end groups in braces. Plain capitals give the bases only. e = 2'-O-(2-methoxyethyl) (MOE); [5mC] = 5-methylcytosine

Tests used:
SMN2 pre-mRNA = assay: Transcriptional activation by RT-qPCR of SMN2 pre-mRNA in HEK293T cells; type: cell-based, human; conditions: HDAC inhibitor alone
Procedure: (FIG. 5D and FIG. 5E) Transcriptional activation was assessed by RT-qPCR. (FIG. 5F) HEK293T cells with 3 nM ASO1 and 10 mM VPA for 24 hr. Bars indicate mean transcriptional activation ± SD ratios between precursors of SMN2 and GAPDH as the control gene. Statistical significance was analyzed by two-tailed Student’s t-tests. P < 0.05 was considered statistically significant.
HEK293T, HeLa, and SMA type I homozygous and carrier fibroblasts 3813 and 3814 (Coriell Cell Repositories, Camden, New Jersey, United States) were grown in Dulbecco’s modified Eagle’s medium (DMEM) containing 4.5 g of glucose and 10% fetal bovine serum (Gibco) at 37° C. Cells were plated at a density of 2×10^5 cells per well in 12-well plates 24 hr before transfection. siRNA (25 nM), plasmid (500 ng), or ASO (25 nM) transfections were performed 24 hr after cells were plated, using 3 µl of Lipofectamine 2000 (Thermo Fisher Scientific) per well in 12-well plates. 24-48 h later, cells were treated with Trichostatin A (Sigma, T8552), Valproic Acid (Sigma, P4543), 5-Azacytidine (Sigma, A2385) or vehicle for the indicated time, and harvested for downstream procedures.

[1] = system: SMA mice (Smn-/-; SMN2 2TG/0); assay: Kaplan-Meier survival of severe SMA mice; type: in vivo, mouse; conditions: s.c. ASO1 at P0 and P1 and/or one s.c. VPA 10 µg/g
Procedure: Kaplan-Meier survival plot (FIG. 4A) and growth curves (FIG. 4B) of SMA mice, following subcutaneous administration at P0 and P1 of 16.8 µg ASO1 (n=18) or saline (n=14), one subcutaneous dose before P3 of 10 µg per g of body weight VPA (n=12), or both treatments together (n=20). ASO1-treated Smn^+/- heterozygote littermates (n=15) served as controls. Scramble (Ctrl) (n=12, 40 trials), VPA (n=13, 50 trials), ASO1 (n=11, 50 trials), ASO1 + VPA (n=17, 68 trials), and untreated heterozygotes (n=12, 36 trials). Statistical significance was analyzed by two-way repeated measures ANOVA. P < 0.05 was considered statistically significant; data are represented as mean + SD. In the righting-reflex test, the time it took a mouse to right itself […] on a flat surface was measured. In the grip-strength test, the angle at which the pups fell from a tablet with a rough to which they held on by their forelimbs was measured.
FIGS. 7A-H show ASO1 and TSA combined treatment in mice. Kaplan-Meier survival plot (FIG. 7A) and growth curves (FIG. 7B) of SMA mice after subcutaneous administration at P0 and P1 of 16.8 µg ASO1 (n=20) or vehicle (n=12), one subcutaneous dose of 10 µg per g of body weight TSA (n=15) at P2, or both treatments together (n=24), are shown. ASO1-treated heterozygotes (n=18) served as controls. Statistical significance was analyzed by two-way repeated measures ANOVA. P < 0.05 was considered statistically significant; data are represented as mean + SD.
All mouse protocols were in accordance with Cold Spring Harbor Laboratory’s Institutional Animal Care and Use Committee guidelines. The mild Hung mouse model (Smn^-^/-; SMN2^2TG/2TG) was the strain FVB.Cg-Smn1^tm1Hung Tg(SMN2)2^Hung/J, purchased from Jackson Laboratory (stock no. 005058). The severe SMA model (Smn^-/-; SMN2^2TG/0) was generated as previously described (Hua et al., Nature 478, 123-126, 2011).
Oligonucleotide solutions in saline were injected subcutaneously into the upper back at P0 and P1 with a […] and 33-gauge custom removable needle (Hamilton) as described (Hua et al., Nature 478, 123-126, 2011). All drugs were injected subcutaneously before P3, contralateral to the oligonucleotide-injection site, with TSA (10 mg/kg) or VPA (10 mg/kg) or vehicle. Mouse tissues and organs, including liver, thigh muscles, kidney, and spinal cord, were snap-frozen in liquid N2 and stored at -70° C.
Introduction of a human SMN2 transgene in an Smn^-/- background rescues embryonic lethality, displaying a range of phenotypes, depending on the SMN2 copy number (Hsieh-Li et al., Nat. Genet. 24, 66-70, 2000; Monani et al., Hum Mol Genet. 12; 333-339, 2000). […]

SMA = conditions: VPA plus carnitine; cited from earlier work

| Compound | levels of SMN2 pre-mRNA (promoter-proximal amplicon) (SMN2 pre-mRNA) | survival (in words) [1] | clinical effectiveness in SMA (SMA) | median survival [1] | mice still alive at P50 [1] [%] |
| --- | --- | --- | --- | --- | --- |
| CCCC(CCC)C(=O)O [VPA, valproic acid] | increased the levels of SMN2 pre-mRNA | died before P10; also recorded: lack of an effect per se | failed to demonstrate effectiveness | – | – |
| ASO1: 5′-ATTCACTTTCATAATGCTGG-3′ 2′-O-methoxyethyl-modified oligonucleotide with phosphorothioate backbone and all 5-methyl cytosines; nusinersen variant with 2-nucleotide extension (antisense eA*eT*eT*e[5mC]*eA*e[5mC]*eT*eT*eT*e[5mC]*eA*eT*eA*eA*eT*eG*e[5mC]*eT*eG*eG) | – | significantly extended | – | ~ 20 days | 15 |
